24 molecules from patent US11814367B2, “Inhibitors of glycogen synthase 1 (GYS1) and methods of use thereof” (Maze Therapeutics, Inc., priority 2021, dated 2023) can be followed below.

Assay [1] deals with hGYS2 enzyme (recombinant hGYS2/GN1 protein) (Homo sapiens (Human), UniProt P54840). As to the kind of experiment: GYS2 coupled enzyme assay (PK/LDH). The class given is biochemical. The settings on record: geometric mean of at least 2 assay runs on separate days, read-out: Avg_IC50. In outline:
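hGYS2/GN1 200 nM; UDP-Glc 2 mM; glycogen 0.2%; G6P 2 mM; PEP 2 mM, NADH 0.6 mM, PK/LDH 20 U/mL. 50 mM Tris pH 7.5, MgCl2, KCl, BSA, TCEP, 2.5% DMSO. Kinetic A340, 10 min. IC50 = geomean of ≥2 runs.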

For assay [2], the target named is hGYS1 enzyme (recombinant hGYS1/GN1 protein) (Homo sapiens (Human), UniProt P13807). Description: GYS1 coupled enzyme assay (PK/LDH). The settings on record: hGYS1/GN1 50 nM, UDP-Glucose 0.8 mM, G6P 1 mM; geometric mean of at least 2 runs. The class given is biochemical.
Sequence of hGYS1 enzyme (recombinant hGYS1/GN1 protein) (P13807 whole entry): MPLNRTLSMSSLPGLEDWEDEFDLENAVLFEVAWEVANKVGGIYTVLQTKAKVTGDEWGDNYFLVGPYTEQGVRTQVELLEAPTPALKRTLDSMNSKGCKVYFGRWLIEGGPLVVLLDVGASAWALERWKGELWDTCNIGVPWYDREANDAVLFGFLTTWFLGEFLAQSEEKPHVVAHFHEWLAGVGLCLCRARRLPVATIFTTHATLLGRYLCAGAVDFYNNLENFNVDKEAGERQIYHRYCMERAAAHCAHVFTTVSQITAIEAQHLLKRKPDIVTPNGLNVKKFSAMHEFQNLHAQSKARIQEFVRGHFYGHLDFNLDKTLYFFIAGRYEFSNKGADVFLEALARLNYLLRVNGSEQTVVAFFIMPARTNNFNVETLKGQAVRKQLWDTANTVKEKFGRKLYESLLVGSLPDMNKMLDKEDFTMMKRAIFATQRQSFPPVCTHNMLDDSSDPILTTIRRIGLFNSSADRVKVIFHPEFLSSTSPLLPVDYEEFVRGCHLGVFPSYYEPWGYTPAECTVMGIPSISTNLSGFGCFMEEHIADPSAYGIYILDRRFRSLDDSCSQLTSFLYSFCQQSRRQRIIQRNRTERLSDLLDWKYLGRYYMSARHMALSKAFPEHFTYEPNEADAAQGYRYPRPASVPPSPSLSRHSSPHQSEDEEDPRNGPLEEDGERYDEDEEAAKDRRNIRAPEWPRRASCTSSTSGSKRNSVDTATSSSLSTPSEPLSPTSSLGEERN
Sequence of hGYS1 enzyme (recombinant hGYS1/GN1 protein) (P46976 whole entry partner): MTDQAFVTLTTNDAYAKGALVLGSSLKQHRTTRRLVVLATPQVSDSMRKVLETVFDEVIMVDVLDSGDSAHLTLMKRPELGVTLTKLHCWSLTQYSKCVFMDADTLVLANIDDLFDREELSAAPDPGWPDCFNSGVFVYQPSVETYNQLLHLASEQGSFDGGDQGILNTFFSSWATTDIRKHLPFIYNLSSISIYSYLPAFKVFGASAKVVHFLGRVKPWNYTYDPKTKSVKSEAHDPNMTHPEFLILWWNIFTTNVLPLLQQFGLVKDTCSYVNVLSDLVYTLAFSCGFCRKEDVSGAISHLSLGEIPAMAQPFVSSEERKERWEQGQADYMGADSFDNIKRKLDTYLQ

Sequence of hGYS2 enzyme (recombinant hGYS2/GN1 protein) (P54840 whole entry): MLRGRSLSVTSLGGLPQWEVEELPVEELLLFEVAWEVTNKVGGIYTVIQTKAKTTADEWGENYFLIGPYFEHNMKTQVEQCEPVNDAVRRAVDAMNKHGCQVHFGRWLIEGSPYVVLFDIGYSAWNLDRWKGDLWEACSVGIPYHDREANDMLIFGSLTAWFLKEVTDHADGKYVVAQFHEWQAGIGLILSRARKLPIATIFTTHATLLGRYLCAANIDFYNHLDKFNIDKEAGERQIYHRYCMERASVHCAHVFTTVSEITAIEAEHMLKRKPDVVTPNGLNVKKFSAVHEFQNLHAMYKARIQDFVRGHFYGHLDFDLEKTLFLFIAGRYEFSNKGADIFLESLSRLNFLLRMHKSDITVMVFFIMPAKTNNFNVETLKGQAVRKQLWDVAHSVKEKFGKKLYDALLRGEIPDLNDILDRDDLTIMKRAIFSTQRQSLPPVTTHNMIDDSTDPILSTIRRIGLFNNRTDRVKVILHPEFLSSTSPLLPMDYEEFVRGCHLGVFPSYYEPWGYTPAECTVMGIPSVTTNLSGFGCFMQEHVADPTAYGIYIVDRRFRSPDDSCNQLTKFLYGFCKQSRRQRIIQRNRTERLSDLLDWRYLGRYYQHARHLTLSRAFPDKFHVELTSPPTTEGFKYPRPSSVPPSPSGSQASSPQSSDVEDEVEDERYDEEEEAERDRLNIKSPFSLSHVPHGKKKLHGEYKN
Sequence of hGYS2 enzyme (recombinant hGYS2/GN1 protein) (P46976 whole entry partner): as the sequence (P46976 whole entry partner) above

As for `CC(=O)Nc1ccc(CC(=O)N2C[C@H](F)C[C@H]2C(=O)N[C@@H](c2ccccc2)c2ccc(C(C)C)cc2)cc1` [Compound 107, (2S,4R)-1-[2-(4-acetamidophenyl)acetyl]-4-fluoro-N-[(S)-phenyl[4-(propan-2-yl)phenyl]methyl]pyrrolidine-2-carboxamide], the IC50 was more than 100000 nM in assay [1] and 19 nM in assay [2].
Taken in the same sequence, the figures for `CC(=O)N1C[C@H](O)C[C@H]1C(=O)N[C@@H](c1ccccc1)c1ccc(C(C)C)cc1` [Compound 205, (2S,4R)-1-acetyl-4-hydroxy-N-[(S)-phenyl[4-(propan-2-yl)phenyl]methyl]pyrrolidine-2-carboxamide] were more than 100000 nM and 3740 nM.
For `Cc1cn(CC(=O)N2C[C@H](F)C[C@H]2C(=O)N[C@@H](c2ccccc2)c2ccc(C(C)C)c(F)n2)c(=O)n(C)c1=O` [Compound 386, (2S,4R)-1-[2-(3,5-dimethyl-2,4-dioxo-1,2,3,4-tetrahydropyrimidin-1-yl)acetyl]-4-fluoro-N-[(S)-[6-fluoro-5-(propan-2-yl)pyridin-2-yl](phenyl)methyl] pyrrolidine-2-carboxamide] the same measures were more than 100000 nM and 5 nM.
For `CC(=O)N1CCOC(C(=O)N2C[C@H](F)C[C@H]2C(=O)N[C@@H](c2ccccc2)c2ccc(C(C)C)cc2)C1` (stereo partly drawn) [Compound 141, (2S,4R)-1-(4-acetylmorpholine-2-carbonyl)-4-fluoro-N-[(S)-phenyl[4-(propan-2-yl)phenyl]methyl]pyrrolidine-2-carboxamide] the same measures were more than 100000 nM and 181 nM.
For `CC(C)c1ccc([C@@H](NC(=O)[C@@H]2C[C@@H](F)CN2C(=O)[C@@H]2CNC(=O)O2)c2ccccc2)cc1` [Compound 8, (2S,4R)-4-fluoro-1-[(5S)-2-oxo-1,3-oxazolidine-5-carbonyl]-N-[(S)-phenyl[4-(propan-2-yl)phenyl]methyl]pyrrolidine-2-carboxamide], the IC50 was more than 100000 nM in assay [1] and 42 nM in assay [2].
For `Cc1nnnn1CC(=O)N1C[C@H](F)C[C@H]1C(=O)N[C@@H](c1ccccc1)c1ccc(C(C)C)cc1` [Compound 226, (2RS,4R)-4-fluoro-1-[2-(5-methyl-1H-1,2,3-tetrazol-1-yl)acetyl]-N-[(S)-phenyl[4-(propan-2-yl)phenyl]methyl]pyrrolidine-2-carboxamide] the same measures were more than 100000 nM and 83 nM.
Taken in the same sequence, the figures for `CC(=O)N1CC2(CCC(C(=O)N3C[C@H](F)C[C@H]3C(=O)N[C@@H](c3ccccc3)c3ccc(C(C)C)cc3)O2)C1` (stereo partly drawn) [Compound 163, (2S,4R)-1-{2-acetyl-5-oxa-2-azaspiro[3.4]octane-6-carbonyl}-4-fluoro-N-[(S)-phenyl[4-(propan-2-yl)phenyl]methyl]pyrrolidine-2-carboxamide] were more than 100000 nM and 135 nM.
Turning to `CC(=O)N1CCN(CC(=O)N2C[C@H](F)C[C@H]2C(=O)N[C@@H](c2ccccc2)c2ccc(C(C)C)cc2)C(=O)C1` [Compound 160, (2S,4R)-1-[2-(4-acetyl-2-oxopiperazin-1-yl)acetyl]-4-fluoro-N-[(S)-phenyl[4-(propan-2-yl)phenyl]methyl]pyrrolidine-2-carboxamide], the IC50 in assay [1] was more than 100000 nM; in assay [2] it was 69 nM.
Consider `CC(C)c1ccc([C@@H](NC(=O)[C@@H]2C[C@@H](F)CN2C(=O)Cn2cnnn2)c2ccccc2)cc1` [Compound 9, (2S,4R)-4-fluoro-N-[(S)-phenyl[4-(propan-2-yl)phenyl]methyl]-1-[2-(1H-1,2,3-tetrazol-1-yl)acetyl]pyrrolidine-2-carboxamide], for which the IC50 in assay [1] is more than 100000 nM; in assay [2], 59 nM.
For `CC(C)c1ccc([C@@H](NC(=O)[C@@H]2C[C@@H](F)CN2C(=O)Cc2cnco2)c2ccccc2)cc1` [Compound 195, (2S,4R)-4-fluoro-1-[2-(1,3-oxazol-5-yl)acetyl]-N-[(S)-phenyl[4-(propan-2-yl)phenyl]methyl]pyrrolidine-2-carboxamide] the same measures were more than 100000 nM and 44 nM.
Taken in the same sequence, the figures for `Cc1ccc(CCC(=O)N2C[C@H](F)C[C@H]2C(=O)N[C@@H](c2ccccc2)c2ccc(C(C)C)cc2)c(C)n1` [Compound 110, (2S,4R)-1-[3-(2,6-dimethylpyridin-3-yl)propanoyl]-4-fluoro-N-[(S)-phenyl[4-(propan-2-yl)phenyl]methyl]pyrrolidine-2-carboxamide] were more than 100000 nM and 33 nM.
For `Cc1nnc(CCC(=O)N2C[C@H](F)C[C@H]2C(=O)N[C@@H](c2ccccc2)c2ccc(C(C)C)cc2)s1` [Compound 62, (2S,4R)-4-fluoro-1-[3-(5-methyl-1,3,4-thiadiazol-2-yl)propanoyl]-N-[(S)-phenyl[4-(propan-2-yl)phenyl]methyl]pyrrolidine-2-carboxamide] the same measures were more than 100000 nM and 64 nM.
In the case of `Cc1nnc(CC(=O)N2C[C@H](F)C[C@H]2C(=O)N[C@@H](c2ccccc2)c2ccc(C3CC3)c(F)c2)[nH]1` [Compound 434, (2S,4R)-N-[(S)-(4-cyclopropyl-3-fluorophenyl)(phenyl)methyl]-4-fluoro-1-[2-(5-methyl-4H-1,2,4-triazol-3-yl)acetyl]pyrrolidine-2-carboxamide], the results for the IC50 in assay [1] and in assay [2] were more than 100000 nM and 109 nM, respectively.
Turning to `Cc1ncc(CC(=O)N2C[C@H](F)C[C@H]2C(=O)N[C@@H](c2ccccc2)c2ccc(C(C)C)cc2)s1` [Compound 41, (2S,4R)-4-fluoro-1-[2-(2-methyl-1,3-thiazol-5-yl)acetyl]-N-[(S)-phenyl[4-(propan-2-yl)phenyl]methyl]pyrrolidine-2-carboxamide], the IC50 in assay [1] was more than 100000 nM; in assay [2], 31 nM.
Taken in the same sequence, the figures for `CC(C)c1ccc([C@@H](NC(=O)[C@@H]2C[C@@H](F)CN2C(=O)CCC#N)c2ccccc2)cc1` [Compound 13, (2S,4R)-1-(3-cyanopropanoyl)-4-fluoro-N-[(S)-phenyl[4-(propan-2-yl)phenyl]methyl]pyrrolidine-2-carboxamide] were more than 100000 nM and 147 nM.
As for `CC(=O)N1CC[C@@]2(C1)C(=O)NCC2C(=O)N1C[C@H](F)C[C@H]1C(=O)N[C@@H](c1ccccc1)c1ccc(C(C)C)cc1` (stereo in doubt) [Compound 6, (2S,4R)-1-[(4S,5R)-7-acetyl-7-oxo-2,7-diazaspiro[4.4]nonane-4-carbonyl]-4-fluoro-N-[(S)-phenyl[4-(propan-2-yl)phenyl]methyl]pyrrolidine-2-carboxamide], the IC50 in assay [1] was more than 100000 nM; in assay [2] it was 211 nM.
Taken in the same sequence, the figures for `CC(=O)N1[C@@H](C)CC[C@H]1C(=O)N[C@@H](c1ccccc1)c1ccc(C(C)C)cc1` [Compound 214, (2S,5S)-1-acetyl-5-methyl-N-[(S)-phenyl[4-(propan-2-yl)phenyl]methyl]pyrrolidine-2-carboxamide] were more than 100000 nM and 853 nM.
Taken in the same sequence, the figures for `CC(=O)N1CCC(C(=O)N2C[C@H](F)C[C@H]2C(=O)N[C@@H](c2ccccc2)c2ccc(C(C)C)cc2)C1` (stereo partly drawn) [Compound 147, (2S,4R)-1-(1-acetylpyrrolidine-3-carbonyl)-4-fluoro-N-[(S)-phenyl[4-(propan-2-yl)phenyl]methyl]pyrrolidine-2-carboxamide] were more than 100000 nM and 127 nM.
Take `Cc1cc(CCC(=O)N2C[C@H](F)C[C@H]2C(=O)N[C@@H](c2ccccc2)c2ccc(C(C)C)cc2)ccn1` [Compound 99, (2S,4R)-4-fluoro-1-[3-(2-methylpyridin-4-yl)propanoyl]-N-[(S)-phenyl[4-(propan-2-yl)phenyl]methyl]pyrrolidine-2-carboxamide]: the values for the IC50 in assay [1] and in assay [2] were more than 100000 nM and 65 nM, respectively.
Taken in the same sequence, the figures for `CC(C)c1ccc([C@@H](NC(=O)[C@@H]2C[C@@H](F)CN2C(=O)C(C)(C)c2nnco2)c2ccccc2)cc1F` [Compound 334] were more than 100000 nM and 145 nM.
Consider `Cc1cc([C@@H](NC(=O)[C@@H]2C[C@@H](F)CN2C(=O)Cc2cnn[nH]2)c2ccccc2)ccc1C1CC1` [Compound 665, (2S,4R)-N-[(S)-(4-cyclopropyl-3-methylphenyl) (phenyl)methyl]-4-fluoro-1-[2-(1H-1,2,3-triazol-5-yl)acetyl]pyrrolidine-2-carboxamide], for which the results for the IC50 in assay [1] and in assay [2] were more than 100000 nM and 99 nM, respectively.
Regarding `CC(C)c1ccc([C@@H](NC(=O)[C@@H]2C[C@@H](F)CN2C(=O)Cc2nnc(CN)o2)c2ccccc2)cc1` [Compound 238, (2S,4R)-1-{2-[5-(aminomethyl)-1,3,4-oxadiazol-2-yl]acetyl}-4-fluoro-N-[(S)-phenyl[4-(propan-2-yl)phenyl]methyl]pyrrolidine-2-carboxamide], the IC50 in assay [1] is more than 100000 nM; in assay [2] it was 46 nM.
For `CC(C)c1ccc([C@@H](NC(=O)[C@@H]2C[C@@H](F)CN2C(=O)C(C)n2ccccc2=O)c2ccccc2)cc1` (stereo partly drawn) [Compound 73, (2S,4R)-4-fluoro-1-[2-(2-oxo-1,2-dihydropyridin-1-yl)propanoyl]-N-[(S)-phenyl[4-(propan-2-yl)phenyl]methyl]pyrrolidine-2-carboxamide] the same measures were more than 100000 nM and 105 nM.
Turning to `CC(C)c1ccc([C@@H](NC(=O)[C@@H]2C[C@@H](F)CN2C(=O)C(C)(C)c2ncn[nH]2)c2ccccc2)cc1` [Compound 233, (2S,4R)-4-fluoro-1-[2-methyl-2-(1H-1,2,4-triazol-5-yl)propanoyl]-N-[(S)-phenyl[4-(propan-2-yl)phenyl]methyl]pyrrolidine-2-carboxamide], the values for the IC50 in assay [1] and in assay [2] were more than 100000 nM and 252 nM, respectively.
